Data on 2 molecules can be found in ChEMBL document CHEMBL1135753, “Characterization of orally active nonpeptide vasopressin V(2) receptor agonist. Synthesis and biological evaluation of both the (5R)- and (5S)-enantioisomers of 2-[1-(2-Chloro-4-pyrrolidin-1-yl-benzoyl)-2,3,4,5-tetrahydro-1H-1-benzazepin- 5-yl]-N-isopropylacetamide” (J Med Chem, 2002).

Test [1] concerns the target T1, Vasopressin V2 receptor (Homo sapiens, UniProt P30518). The experiment in a line: Binding affinity against human Vasopressin V2 receptor expressed in HeLa cells was determined. Type of test: cell-based.
Test [2] concerns the target Vasopressin V2 receptor (Rattus norvegicus, UniProt Q00788). The experiment in a line: Binding affinity against Vasopressin V2 receptor was determined in Brattleboro rats.
For test [3], the target named is T1, Vasopressin V2 receptor. Briefly: Percentage of maximal cAMP accumulation at a concentration of 10e-4 M was done in HeLa cells expressing the human Vasopressin V2 receptor. Type of test: functional, cell-based.

T1 sequence (P30518 whole entry): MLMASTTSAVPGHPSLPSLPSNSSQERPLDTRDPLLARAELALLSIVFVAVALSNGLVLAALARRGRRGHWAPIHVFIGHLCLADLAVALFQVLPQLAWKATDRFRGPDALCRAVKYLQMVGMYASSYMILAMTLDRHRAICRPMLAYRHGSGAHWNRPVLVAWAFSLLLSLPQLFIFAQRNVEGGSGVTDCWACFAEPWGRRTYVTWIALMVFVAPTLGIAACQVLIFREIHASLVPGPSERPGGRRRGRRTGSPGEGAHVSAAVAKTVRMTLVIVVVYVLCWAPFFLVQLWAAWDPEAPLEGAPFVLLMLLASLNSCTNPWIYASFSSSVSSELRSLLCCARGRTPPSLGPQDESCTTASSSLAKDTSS
Vasopressin V2 receptor (Rattus norvegicus, UniProt Q00788), sequence (Q00788 whole entry): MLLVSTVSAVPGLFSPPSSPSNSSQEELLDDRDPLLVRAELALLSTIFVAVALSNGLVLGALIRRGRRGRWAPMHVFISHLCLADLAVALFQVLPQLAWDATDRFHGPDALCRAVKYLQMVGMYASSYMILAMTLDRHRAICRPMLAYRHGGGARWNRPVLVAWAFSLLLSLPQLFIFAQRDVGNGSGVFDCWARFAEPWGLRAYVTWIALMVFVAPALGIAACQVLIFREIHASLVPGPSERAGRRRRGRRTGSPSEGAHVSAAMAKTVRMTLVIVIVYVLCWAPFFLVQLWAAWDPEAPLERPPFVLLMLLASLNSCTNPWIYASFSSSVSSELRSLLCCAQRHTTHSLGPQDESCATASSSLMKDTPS

In the case of `CC(C)NC(=O)C[C@@H]1CCCN(C(=O)c2ccc(N3CCCC3)cc2Cl)c2ccccc21`, the half-maximal inhibitory concentration (IC50) (commonly the concentration at which inhibition is half-maximal) in test [1] was determined as 980 nM; in test [2] it was 390 nM. The same molecule had an Accumulation in test [3] of 22%.

`CC(C)NC(=O)C[C@H]1CCCN(C(=O)c2ccc(N3CCCC3)cc2Cl)c2ccccc21`: the IC50 in test [1] came to 330 nM; in test [2] it was 230 nM.
